The text below walks through data of patent US5952368A, “5-aroylpyrrol-2-ylmethylarene derivatives” (Syntex (U.S.A.) Inc., priority 1997, dated 1999).

In one experiment the target is T1, COX II (Homo sapiens, UniProt P35354).
T1 construct: made in house; baculovirus-infected insect cells by own knowledge of the cited Barnett et al. 1994
T1 sequence (P35354 18-604): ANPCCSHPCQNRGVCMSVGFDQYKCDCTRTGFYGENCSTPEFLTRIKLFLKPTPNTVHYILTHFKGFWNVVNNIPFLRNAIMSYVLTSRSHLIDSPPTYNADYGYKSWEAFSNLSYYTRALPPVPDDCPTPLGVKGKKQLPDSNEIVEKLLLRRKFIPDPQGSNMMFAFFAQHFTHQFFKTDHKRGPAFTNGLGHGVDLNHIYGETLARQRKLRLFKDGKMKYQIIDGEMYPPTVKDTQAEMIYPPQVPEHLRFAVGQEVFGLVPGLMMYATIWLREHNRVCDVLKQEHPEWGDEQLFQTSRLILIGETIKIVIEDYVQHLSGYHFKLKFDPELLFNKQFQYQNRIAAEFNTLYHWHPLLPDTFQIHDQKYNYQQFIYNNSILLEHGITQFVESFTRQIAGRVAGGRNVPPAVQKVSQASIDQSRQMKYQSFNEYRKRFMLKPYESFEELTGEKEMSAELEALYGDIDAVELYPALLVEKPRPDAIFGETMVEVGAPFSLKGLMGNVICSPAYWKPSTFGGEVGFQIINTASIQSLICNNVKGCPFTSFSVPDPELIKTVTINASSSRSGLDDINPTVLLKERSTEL
The experiment can be described thus: Inhibition of COX II in vitro (radiometric assay, 14C arachidonic acid, partially purified enzyme). In kind it is biochemical. The following applies: partially purified COX II, 20 micromolar arachidonic acid, 10 min preincubation, room temperature; read-out: COX II IC50. How it is done: (§1) The COX I and COX II inhibitory activity of compounds of this invention in vitro was determined using partially purified COX I and COX II enzymes, prepared as described in J. Barnett et al., Biochim. Biophys. Acta, 1209:130--139 (1994).
(§2) COX I and COX II samples were diluted with Tris-HCl buffer (50 mM Tris-HCl pH 7.9) containing 2 mM EDTA and 10% glycerol and reconstituted by incubating first with 2 mM phenol for 5 minutes and then with 1 micromolar hematin for an additional 5 minutes. 125 μl of the reconstituted COX I or COX II enzyme were preincubated for 10 minutes at room temperature in a shaking water bath with the compounds of the invention dissolved in 2-15 μl of DMSO or the carrier vehicles (control samples). The enzyme reaction was initiated by adding 25 μl of 1-[14C] arachidonic acid (80,000-100,000 cpm/tube; 20 micromolar final concentration) and the reaction was allowed to continue for an additional 45 seconds. The reaction was terminated by adding 100 μl of 2N HCl and 750 μl water. An aliquot (950 μl) of the reaction mixture was loaded onto a 1 ml C18 Sep-Pak column (J. T. Baker, Phillipsburg, N.J.) which had been previously washed with 2-3 ml methanol and equilibrated with 5-6 ml distilled water. Oxygenated products were quantitatively eluted with 3 ml of acetonitrile/water/acetic acid (50:50:0.1, v/v) and the radioactivity in the eluate determined in a scintillation counter.

The test system of experiment [1] is carrageenan-induced paw edema. The experiment can be described thus: Anti-inflammatory activity: inhibition of carrageenan-induced paw edema in the rat. As to conditions: 10 mg/Kg, oral, female rats, 3 h after carrageenan. The format is in vivo. How it is done: The anti-inflammatory activity of compounds of this invention was determined by measuring the inhibition of carrageenan-induced paw edema in the rat, using a modification of the method described in Winter C. A. et al. (1962) "Carrageenan-Induced Edema in Hind Paw of the Rat as an Assay for Anti-inflammatory Drugs". Proc. Soc. Exp. Biol. Med. 111: 544-547. This assay has been used as a primary in vivo screen for anti-inflammatoryactivity of most NSAIDs, and is considered predictive of human efficacy. Briefly, test materials were administered orally to female rats in a volume of 1 ml prepared as solutions or suspensions in an aqueous vehicle containing 0.9% NaCl, 0.5% sodium carboxymethyl-cellulose, 0.4% polysorbate 80, 0.9% benzyl alcohol and 97.3% distilled water. Control rats received vehicle alone. After 1 h 0.05 ml of a 0.5% solution of Carrageenan (Type IV Lambda, Sigma Chemical Co.) in 0.9% saline was injected into the subplantar region of the right hind paw. Three hours later the rats were euthanized in a carbon dioxide atmosphere; hind paws were removed by severing at the tatso-crural joint; and the left and right paws were weighed. The increase in weight of the right paw over the left paw was obtained for each animal and the mean increases were calculated for each group. The anti-inflammatory activity of the test materials is expressed as the percent inhibition of the increase in hind paw weight of the test group relative to the vehicle-dosed control group.
A general note: In the carrageenan paw model, swelling and tenderness develop within hours.

The target of a further experiment is T2, COX I (Homo sapiens, UniProt P23219).
T2 construct: made in house; baculovirus-infected insect cells by own knowledge of the cited Barnett et al. 1994
T2 sequence (P23219 24-599): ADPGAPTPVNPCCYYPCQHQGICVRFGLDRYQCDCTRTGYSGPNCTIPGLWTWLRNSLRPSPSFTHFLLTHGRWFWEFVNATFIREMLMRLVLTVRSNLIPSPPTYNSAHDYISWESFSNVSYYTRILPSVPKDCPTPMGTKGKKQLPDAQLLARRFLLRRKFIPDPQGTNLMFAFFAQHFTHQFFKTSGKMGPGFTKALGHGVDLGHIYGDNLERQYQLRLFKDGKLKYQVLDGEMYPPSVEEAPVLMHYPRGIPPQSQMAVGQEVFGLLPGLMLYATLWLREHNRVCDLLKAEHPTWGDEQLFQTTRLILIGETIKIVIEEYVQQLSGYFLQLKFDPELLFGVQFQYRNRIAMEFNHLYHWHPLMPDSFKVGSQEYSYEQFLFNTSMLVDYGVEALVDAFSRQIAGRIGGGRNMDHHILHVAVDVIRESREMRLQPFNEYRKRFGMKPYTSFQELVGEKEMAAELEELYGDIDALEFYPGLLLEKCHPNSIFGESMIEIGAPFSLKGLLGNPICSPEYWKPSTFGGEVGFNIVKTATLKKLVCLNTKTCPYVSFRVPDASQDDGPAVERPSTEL
The experiment can be described thus: Inhibition of COX I in vitro (radiometric assay, 14C arachidonic acid, partially purified enzyme). The format is biochemical. The following applies: partially purified COX I, 20 micromolar arachidonic acid, 10 min preincubation, room temperature; read-out: COX I IC50. On the procedure:
as §1, §2

The subject of another experiment is air pouch PGE2 formation. The experiment can be described thus: Inhibition of eicosanoid (PGE2) synthesis in vivo: carrageenan air-pouch model in rats. As to conditions: oral, male rats. On the set-up: species or system rat. On the procedure:
In this assay, an air-pouch is created in the rat and the PGE2 levels in the air-pouch exudate are measured by enzyme immunoassay. Briefly, male rats were anesthetized using a 60:40 CO2 :O2 mixture and subsequently injected subcutaneously with 20 ml of sterilized air, under aseptic conditions, in the proximal area of the dorsum. This injection of sterile air causes the creation of a subcutaneous "air pouch". The next day, a further 10 ml of sterile air was injected into the previously formed pouch using the same technique. […] Control rats received vehicle alone. After 30 minutes, 5 ml of a 0.5% solution of carrageenan (Sigma, Lambda Type IV) was injected into the air pouch. The rats were euthanized 3 or 6 h after the compound administration. […] The total exudate volume was recorded, and the samples were analyzed for PGE2 and 6-keto PGF1 by ELISA (Titerzyme®, PerSeptive Diagnostics) and TxB2 by radioimmuno assay (New England Nuclear Research, Catalog No. NEK-037), according to the manufacturer's directions.
The mean concentrations of PGE2 were calculated for each group. The anti-inflammatory activity of test materials is expressed as the percent inhibition of PGE2 formation in the test group relative to the control group.

The IC50 is the point on the concentration scale where inhibition reaches its midpoint. Regarding `Cc1cc(Cc2ccc(NS(C)(=O)=O)cc2C#N)n(C)c1C(=O)c1ccc(Cl)cc1` [compound 19, N-{3-Cyano-4-[5-(4-chlorobenzoyl)-1,4-dimethyl-1H-pyrrol-2-ylmethyl]phenyl}-methanesulfonamide], the results for the IC50 on COX II and on COX I were 80 nM and 0.76 µM, respectively. Moreover, in experiment [1], the “% Inhibition (of the increase in hind paw weight)” value came to 36%. Further, the “% Inhibition of air pouch PGE2 formation” value with air pouch PGE2 formation (10 mg/Kg, 3 hr) is 74%.

As for `Cc1ccc(C(=O)c2ccc(Cc3ccc(NS(=O)(=O)CCO)cc3F)n2C)c(C)c1` [compound 48, N-{3-Fluoro-4-[5-(2,4-dimethylbenzoyl)-1-methyl-1H-pyrrol-2-ylmethyl]phenyl}-2-(hydroxy)ethanesulfonamide], the IC50 on COX II worked out at 80 nM; at COX I, 61 µM. The “% Inhibition (of the increase in hind paw weight)” value in experiment [1] was determined as 35%. In the experiment with air pouch PGE2 formation (30 mg/Kg, 3 hr), the “% Inhibition of air pouch PGE2 formation” value stood at 64%.

Consider `Cc1cc(Cc2ccc(NS(N)(=O)=O)cc2F)n(C)c1C(=O)c1ccc(Cl)cc1` [compound 146, 1-{3-Fluoro-4-[5-(4-chlorobenzoyl)-1,4-dimethyl-1H-pyrrol-2-ylmethyl]phenyl}sulfamide], for which the IC50 at COX II came out at 60 nM; on COX I, 2.9 µM. In addition, the “% Inhibition (of the increase in hind paw weight)” value in experiment [1] came to 40%. Also, the “% Inhibition of air pouch PGE2 formation” value with air pouch PGE2 formation (10 mg/Kg, 3 hr) turned out to be 93%.

On to `Cc1ccc(C(=O)c2ccc(Cc3ccc(NS(N)(=O)=O)cc3F)n2C)c(C)c1` [compound 165, 1-{3-Fluoro-4-[5-(2,4-dimethylbenzoyl)-1-methyl-1H-pyrrol-2-ylmethyl]phenyl}sulfamide], for which the IC50 on COX II is 95 nM; on COX I it was 16.8 µM. For the same compound, in experiment [1], the “% Inhibition (of the increase in hind paw weight)” value amounted to 17%. Moreover, the “% Inhibition of air pouch PGE2 formation” value in the experiment with air pouch PGE2 formation (10 mg/Kg, 3 hr) stood at 52%.

As to `CNC(=S)Nc1ccc(Cc2cc(C)c(C(=O)c3ccc(Cl)cc3)n2C)cc1` [compound 236], the IC50 on COX II was found to be 510 nM; on COX I, 15 µM. Moreover, the “% Inhibition of air pouch PGE2 formation” value with air pouch PGE2 formation (30 mg/Kg, 6 hr) is recorded as 71%.

As for `Cc1ccc(C(=O)c2ccc(Cc3ccc(NS(C)(=O)=O)cn3)n2C)cc1` [compound 271, N-{2-[5-(4-Methylbenzoyl)-1-methyl-1H-pyrrol-2-ylmethyl]pyridin-5-yl}methane-sulfonamide], the IC50 on COX II is 430 nM; on COX I, 89 µM. Further, in the experiment with air pouch PGE2 formation (10 mg/Kg, 3 hr), the “% Inhibition of air pouch PGE2 formation” value is recorded as 56%.

In the case of `COc1ccc(C(=O)c2c(C)cc(Cc3ncc(NS(C)(=O)=O)cc3Cl)n2C)cc1` [compound 284, N-{3-Chloro-2-[5-(4-methoxybenzoyl)-1,4-dimethyl-1H-pyrrol-2-ylmethyl]pyridin-5-yl}-methanesulfonamide], the IC50 at COX II was found to be 500 nM; on COX I it was 22 µM. The “% Inhibition of air pouch PGE2 formation” value in the experiment with air pouch PGE2 formation (10 mg/Kg, 3 hr) is listed as 65%.

As for `COc1ccc(C(=O)c2ccc(Cc3ccc(NS(C)(=O)=O)cn3)n2C)cc1` [compound 288, N-{2-[5-(4-Methoxybenzoyl)-1-methyl-1H-pyrrol-2-ylmethyl]pyridin-5-yl}-methanesulfonamide], the IC50 on COX II amounted to 550 nM; on COX I, 235 µM. The “% Inhibition (of the increase in hind paw weight)” value in experiment [1] is recorded as 20%. For the same compound, the “% Inhibition of air pouch PGE2 formation” value with air pouch PGE2 formation (10 mg/Kg, 3 hr) is given as 53%.

As to `CC(=O)Nc1ccc(Cc2cc(C)c(C(=O)c3ccc(Cl)cc3)n2C)nc1` [compound 329, N-{2-[5-(4-Chlorobenzoyl)-1,4-dimethyl-1H-pyrrol-2-ylmethyl]pyridin-5-yl}acetamide], the IC50 came out at 43700 nM at COX II and 256 µM on COX I.

`Cc1cc(Cc2ccc(NC=O)cn2)n(C)c1C(=O)c1ccc(Cl)cc1` [compound 330, N-{2-[5-(4-Chlorobenzoyl)-1,4-dimethyl-1H-pyrrol-2-ylmethyl]pyridin-5-yl}formamide]: the IC50 at COX II was 30000 nM; at COX I, 61.1 µM.

Regarding `CSc1ccc(C(=O)c2c(C)cc(Cc3ccc(N)cn3)n2C)cc1` [compound 334, {2-[5-(4-Methylthiobenzoyl)-1,4-dimethyl-1H-pyrrol-2-ylmethyl]pyridin-5-yl}amine], the IC50 on COX II worked out at 640 nM; at COX I, 18.3 µM. Also, the “% Inhibition of air pouch PGE2 formation” value in the experiment with air pouch PGE2 formation (10 mg/Kg, 3 hr) is reported as 44%.

As for `Cc1cc(Cc2ccc(NS(C)(=O)=O)cc2F)n(C)c1C(=O)c1cccs1` [compound 340, N-{3-Fluoro-4-[5-(2-thenoyl)-1,4-dimethyl-1H-pyrrol-2-ylmethyl]phenyl}-methanesulfonamide], the IC50 came to 60 nM at COX II and 0.02 µM on COX I.

For the compound `Cc1cc(Cc2ccc(O)cc2)n(C)c1C(=O)c1ccc(Cl)cc1` [compound 343, 4-{5-(4-Chlorobenzoyl)-1,4-dimethyl-1H-pyrrol-2-ylmethyl}phenol], the IC50 at COX II amounted to 540 nM; on COX I, 6.6 µM. The “% Inhibition (of the increase in hind paw weight)” value in experiment [1] worked out at 35%.

For the compound “N-{2-[5-(4-Methylbenzoyl)-1,4-dimethyl-1H-pyrrol-2-ylmethyl]pyridin-5-yl}- 2-(hydroxy)-ethanesulfonamide hydrochloride [compound 272]”, the IC50 at COX II is 2100 nM; at COX I it was over 1000 µM.
